Data from US11207320B2, “Compositions and methods for cancer expressing PDE3A or SLFN12” (The Broad Institute, Inc., priority 2015, dated 2021).

What was measured:
PDE3A = PDE3A (Homo sapiens, UniProt Q14432); experiment: Linker-affinity purification of molecular target of DNMDP and immunoblotting; type: binding; parameters: Immunoprecipitation of endogenous PDE3A in HeLa cells; endogenous in cells; host or cells: HeLa; settings: HeLa cell lysate, competitor 10 μM, immunoblot for PDE3A
Procedure: To identify the molecular target of DNMDP, an affinity purification was performed using an (R)-des-nitro-DNMDP solid-phase tethered linker analogue (FIG. 10A) incubated with HeLa cell lysate. […] It was competed for the molecular target by adding either an excess of trequinsin or separate enantiomers of DNMDP, where only the (R)-enantiomer was cytotoxic. […] Binding of PDE3A to the linker analogue was blocked by both trequinsin and (R)-DNMDP, but not by the non-cytotoxic enantiomer (S)-[…]. 9C). Thus both trequinsin and (R)-DNMDP prevented the binding of PDE3A to the tethered DNMDP analogue, and it was concluded that both molecules bind PDE3A directly. HeLa cells were washed with ice-cold PBS before lysed with NP-40 lysis buffer (150 mM NaCl, 10% glycerol, 50 mM Tris-Cl pH 8.0, 50 mM MgCl2, 1% NP-40) supplemented with EDTA-free protease inhibitors (Roche) and phosphatase inhibitor mixtures I and II (Calbiochem). […] Samples were washed three times with lysis buffer containing corresponding compound concentrations of 10 μM. Proteins bound to Affi-Gel 102 resin were reduced, denatured, and separated using Tris-Glycine gels (Novex) and transferred to nitrocellulose membranes using the iBlot transfer system (Novex). Membranes were incubated overnight at 4° C. with primary antibodies against PDE3A (1:1000, Bethyl). […]

HeLa cells = type: cell-based; settings: co-treated with DNMDP, 48 hours
Procedure: HeLa cells were co-treated with 30 nM DNMDP (the EC70 concentration) and 20 μM of each bioactive compound. Cell viability after 48-hour treatment was assessed by ATP consumption as described earlier.
1000 HeLa cells were plated in a 384-well plate in 40 μl of DMEM supplemented with 10% Fetal Bovine Serum and 1% Pen/Strep. 24 hours after plating, a compound-library of 1600 bioactive molecules (Pharmacon) was added at a concentration of 20 μM. In parallel to bioactive compound incubation, DNMDP was added to a final concentration of 30 nM and incubated for 48 hours. Cell viability was assessed as described in Compound library screening in NCI-H1734 and A549 cell lines.

Chain of PDE3A (Q14432 whole entry): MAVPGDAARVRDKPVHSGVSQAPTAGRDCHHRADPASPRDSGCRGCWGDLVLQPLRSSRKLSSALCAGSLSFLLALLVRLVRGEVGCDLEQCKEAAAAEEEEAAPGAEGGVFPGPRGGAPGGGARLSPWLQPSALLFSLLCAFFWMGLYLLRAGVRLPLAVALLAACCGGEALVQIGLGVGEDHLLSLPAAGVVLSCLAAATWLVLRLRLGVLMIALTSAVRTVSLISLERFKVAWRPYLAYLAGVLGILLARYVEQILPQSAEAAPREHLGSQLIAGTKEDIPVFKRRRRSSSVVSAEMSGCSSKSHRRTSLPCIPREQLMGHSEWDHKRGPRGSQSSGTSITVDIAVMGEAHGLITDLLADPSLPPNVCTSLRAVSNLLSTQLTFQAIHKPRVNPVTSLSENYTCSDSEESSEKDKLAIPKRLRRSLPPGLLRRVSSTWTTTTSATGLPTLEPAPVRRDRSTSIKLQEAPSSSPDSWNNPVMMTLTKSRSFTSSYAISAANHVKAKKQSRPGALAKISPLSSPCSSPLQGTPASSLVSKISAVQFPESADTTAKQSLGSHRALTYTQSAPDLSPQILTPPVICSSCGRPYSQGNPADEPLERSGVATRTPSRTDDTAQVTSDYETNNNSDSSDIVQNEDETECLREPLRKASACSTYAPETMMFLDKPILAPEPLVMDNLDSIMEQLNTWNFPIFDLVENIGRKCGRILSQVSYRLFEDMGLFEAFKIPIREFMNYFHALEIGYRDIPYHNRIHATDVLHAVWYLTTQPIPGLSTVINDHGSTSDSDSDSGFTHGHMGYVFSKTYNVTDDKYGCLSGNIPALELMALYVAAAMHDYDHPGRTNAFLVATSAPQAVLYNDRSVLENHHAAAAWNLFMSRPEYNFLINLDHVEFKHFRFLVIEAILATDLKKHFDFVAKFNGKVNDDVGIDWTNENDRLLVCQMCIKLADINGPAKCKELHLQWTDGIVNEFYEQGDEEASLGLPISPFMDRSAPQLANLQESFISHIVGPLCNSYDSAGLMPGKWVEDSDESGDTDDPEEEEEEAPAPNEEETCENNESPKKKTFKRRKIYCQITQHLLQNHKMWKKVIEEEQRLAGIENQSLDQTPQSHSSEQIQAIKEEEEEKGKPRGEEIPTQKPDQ

In the case of `COc1cc2c(cc1OC)-c1c/c(=N\c3c(C)cc(C)cc3C)n(C)c(=O)n1CC2` [trequinsin, 9,10-dimethoxy-3-methyl-2-(2,4,6-trimethylphenyl)imino-6,7-dihydropyrimido[6,1-a]isoquinolin-4-one], the “blocking of binding of PDE3A to the tethered linker analogue” value (PDE3A) is reported as “blocked” and the “RC50 (the concentration at which it achieved 50% rescue)” value (HeLa cells) is reported as < 1 nM.
